# Patent publication US20250388529A1, “N-Substituted Phenylalkylamines and Their Use as Therapeutic Agents” (priority 2023, published 2025)
# How the values were obtained:
# human Nav1.1 and Navβ1 = human Nav1.1 and Navβ1 (Homo sapiens, UniProt P35498); test: cell-based
# rat 5-HT2A receptors = rat 5-HT2A receptors (Rattus norvegicus, UniProt P14842); settings: [125I]-DOI competition binding; cited from earlier work
# 5-HT2A [1] = molecular target: T1, 5-HT2A (Homo sapiens, UniProt P28223); settings: [125I]-DOI competition binding; cited from earlier work
# T1 sequence (P28223 whole entry): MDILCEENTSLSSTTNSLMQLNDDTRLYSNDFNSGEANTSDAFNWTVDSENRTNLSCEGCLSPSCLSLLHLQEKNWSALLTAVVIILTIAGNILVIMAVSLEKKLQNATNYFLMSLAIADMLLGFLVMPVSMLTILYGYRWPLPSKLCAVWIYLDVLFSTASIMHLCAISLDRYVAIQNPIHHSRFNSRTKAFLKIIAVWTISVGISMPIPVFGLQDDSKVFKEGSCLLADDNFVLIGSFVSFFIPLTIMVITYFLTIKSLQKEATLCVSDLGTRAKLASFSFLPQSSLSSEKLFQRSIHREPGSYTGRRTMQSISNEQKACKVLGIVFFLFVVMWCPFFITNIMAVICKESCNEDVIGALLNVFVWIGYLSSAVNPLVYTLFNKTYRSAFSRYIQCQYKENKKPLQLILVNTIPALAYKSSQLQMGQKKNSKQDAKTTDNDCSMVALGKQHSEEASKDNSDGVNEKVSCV
# 5-HT2B = 5-HT2B (Homo sapiens, UniProt P41595); settings: Ca2+ mobilization; cited from earlier work
# 5-HT2B, sequence (P41595 whole entry): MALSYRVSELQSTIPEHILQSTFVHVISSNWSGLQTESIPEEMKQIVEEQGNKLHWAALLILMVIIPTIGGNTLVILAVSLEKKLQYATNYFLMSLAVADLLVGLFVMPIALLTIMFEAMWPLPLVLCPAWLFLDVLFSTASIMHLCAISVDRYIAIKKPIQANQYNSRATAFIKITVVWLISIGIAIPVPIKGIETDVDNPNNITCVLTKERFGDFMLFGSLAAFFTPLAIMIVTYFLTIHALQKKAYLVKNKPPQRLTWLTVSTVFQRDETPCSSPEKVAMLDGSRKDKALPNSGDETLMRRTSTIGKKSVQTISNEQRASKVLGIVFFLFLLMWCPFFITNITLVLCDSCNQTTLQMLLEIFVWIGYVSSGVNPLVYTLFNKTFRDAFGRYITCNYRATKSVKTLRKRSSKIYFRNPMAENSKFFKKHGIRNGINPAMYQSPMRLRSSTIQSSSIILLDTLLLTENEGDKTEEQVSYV
# 5-HT2A [2] = molecular target: T1, 5-HT2A; settings: Ca2+ mobilization; cited from earlier work
# 5-HT2A [3] = molecular target: T1, 5-HT2A; settings: cited from earlier work
# [4] = cited from earlier work
# 5-HT2A receptors = molecular target: T2, 5-HT2A receptors (Rattus norvegicus, UniProt P14842); settings: Xenopus oocytes; cited from earlier work
# T2 construct: host or cells: Xenopus oocytes (transient)
# T2 sequence (P14842 whole entry): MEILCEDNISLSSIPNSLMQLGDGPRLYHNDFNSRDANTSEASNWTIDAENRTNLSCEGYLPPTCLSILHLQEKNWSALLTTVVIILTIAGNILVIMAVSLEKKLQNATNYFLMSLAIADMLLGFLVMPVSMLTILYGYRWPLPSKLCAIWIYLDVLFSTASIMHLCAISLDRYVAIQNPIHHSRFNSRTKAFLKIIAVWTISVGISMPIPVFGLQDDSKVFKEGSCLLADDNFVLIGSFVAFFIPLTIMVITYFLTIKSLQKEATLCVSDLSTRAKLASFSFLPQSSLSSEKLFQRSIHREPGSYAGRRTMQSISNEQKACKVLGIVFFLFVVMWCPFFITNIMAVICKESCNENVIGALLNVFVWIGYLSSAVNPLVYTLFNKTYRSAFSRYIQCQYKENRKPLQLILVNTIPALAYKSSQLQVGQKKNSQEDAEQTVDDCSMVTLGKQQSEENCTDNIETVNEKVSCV
# rat 5-HT2A receptors, sequence (P14842 whole entry): as above
Compound,Normalized Peak INa Inhibition (human Nav1.1 and Navβ1),Peak INa Density (human Nav1.1 and Navβ1),Peak INa Density @ −20 mV (human Nav1.1 and Navβ1),reduction of baseline peak INa (human Nav1.1 and Navβ1),Ki (rat 5-HT2A receptors),Ki (5-HT2A [1]),EC50 (5-HT2B),EC50 (5-HT2A [2]),functional activity at the 5-HT2A receptor (5-HT2A [3]),oral activity (dose) [4],functional activity in 5-HT2A-mediated inward current recordings (5-HT2A receptors)
"NC1=N[C@H](O)[C@H]2[C@H]3O[C@]4(O)O[C@@H]([C@@H](O)[C@@]2(N1)[C@@H]4O)[C@]3(O)CO [TTX, Tetrodotoxin, reference compound]",0.870 ± 0.02,−56.3 ± 9.4 pA/pF,−15.84±2.16 pA/pF,87±2%,–,–,–,–,–,–,–
COc1cc(CCN)c(OC)cc1Br [2C-B],–,–,–,–,0.66 nM,0.88 nM,57 nM,2.1 nM,partial agonist,12 to 24 mg,antagonist
